Data: patent publication US6737383B1, “Herbicidal oxadiazolidines” (priority 1999, dated 2004)

Key:
cocklebur = experiment: Test B pre/postemergence cocklebur; type: in vivo, Xanthium strumarium
Summary of the method: (§1)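 Test chemicals in a non-phytotoxic solvent mixture with surfactant were sprayed preemergence onto planted seeds and postemergence onto plants 2 to 18 cm tall (1- to 4-leaf stage). After twelve to sixteen days in a greenhouse, injury was visually rated against untreated controls from 0 (no effect) to 10 (complete control).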

rice = experiment: Test B flood test rice; type: in vivo, Oryza sativa
Summary of the method: (§2)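 Flood test on plants grown to the 2-leaf stage; treated plants kept in greenhouse twelve to sixteen days, then visually rated against controls on a 0 (no effect) to 10 (complete control) scale.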

pigweed = experiment: Test B pre/postemergence pigweed; type: in vivo, Amaranthus retroflexus
Summary of the method: as §1

morningglory = experiment: Test B pre/postemergence morningglory; type: in vivo, Ipomoea hederacea
Summary of the method: as §1

purple nutsedge = experiment: Test B pre/postemergence purple nutsedge; type: in vivo, Cyperus rotundus
Summary of the method: as §1

giant foxtail = experiment: Test B pre/postemergence giant foxtail; type: in vivo, Setaria faberii
Summary of the method: as §1

corn = experiment: Test B pre/postemergence corn; type: in vivo, Zea mays
Summary of the method: as §1

smallflower flatsedge = experiment: Test B flood test smallflower flatsedge; type: in vivo, Cyperus difformis
Summary of the method: as §2

wheat = experiment: Test B pre/postemergence wheat; type: in vivo, Triticum aestivum
Summary of the method: as §1

crabgrass = experiment: Test B pre/postemergence crabgrass; type: in vivo, Digitaria sanguinalis
Summary of the method: as §1

wild oat = experiment: Test B pre/postemergence wild oat; type: in vivo, Avena fatua
Summary of the method: as §1

duck salad = experiment: Test B flood test duck salad; type: in vivo, Heteranthera limosa
Summary of the method: as §2

soybean = experiment: Test B pre/postemergence soybean; type: in vivo, Glycine max
Summary of the method: as §1

rape = experiment: Test B pre/postemergence rape; type: in vivo, Brassica napus
Summary of the method: as §1

velvetleaf = experiment: Test B pre/postemergence velvetleaf; type: in vivo, Abutilon theophrasti
Summary of the method: as §1

sugar beet = experiment: Test B pre/postemergence sugar beet; type: in vivo, Beta vulgaris
Summary of the method: as §1

[1] = Postemergence, Rate 62 g/ha, scale 0 to 10, 0 is no effect, 10 is complete control
[2] = Postemergence, Rate 250 g/ha, scale 0 to 10, 0 no effect, 10 complete control
[3] = Preemergence, Rate 62 g/ha, scale 0 to 10 (0 no effect, 10 complete control)
[4] = Preemergence, Rate 125 g/ha, scale 0 to 10 (0 no effect, 10 complete control)
[5] = Preemergence, Rate 250 g/ha, scale of 0 to 10 where 0 is no effect and 10 is complete control
[6] = Preemergence, Rate 500 g/ha, scale 0 (no effect) to 10 (complete control)
[7] = Rate 125 g/ha, Postemergence, scale 0 to 10, 0 no effect, 10 complete control
[8] = Rate 500 g/ha, Postemergence, scale 0 to 10, 0 no effect, 10 complete control
[9] = Rate 62 g/ha, headed Pre-emergence (flood test species), scale 0 to 10 (0 no effect, 10 complete control)
[10] = Rate 125 g/ha, Pre-emergence, flood test species, scale 0 to 10 where 0 is no effect and 10 is complete control
[11] = Rate 250 g/ha, headed Pre-emergence (flood test species), scale 0 to 10 (0 no effect, 10 complete control)
[12] = Rate 500 g/ha, headed Pre-emergence (flood test species), scale 0 to 10 (0 no effect, 10 complete control)

Cc1cccc(C)c1-n1c(=O)on(C(=O)N(Cc2ccccc2)C(C)C)c1=O [Compound 69]
Cocklebur plant response rating (cocklebur; [1]): 0 | Cocklebur plant response rating (cocklebur; [2]): 0 | Cocklebur plant response rating (cocklebur; [3]): 0 | Plant response rating, Cocklebur (cocklebur; [4]): 0 | Plant response rating, Cocklebur (cocklebur; [5]): 0 | Cocklebur plant response rating (cocklebur; [6]): 0 | Cocklebur plant response rating (cocklebur; [7]): 0 | Cocklebur plant response rating (cocklebur; [8]): 0 | Rice plant response rating (rice; [9]): 0 | Rice plant response rating (rice; [10]): 0 | Rice plant response rating (rice; [11]): 0 | Plant response rating, Rice (rice; [12]): 0 | Redroot pigweed plant response rating (pigweed; [1]): 0 | Redroot pigweed plant response rating (pigweed; [2]): 0 | Redroot pigweed plant response rating (pigweed; [3]): 0 | Plant response rating, Redroot pigweed (pigweed; [4]): 0 | Plant response rating, Redroot pigweed (pigweed; [5]): 0 | Redroot pigweed plant response rating (pigweed; [6]): 0 | Redroot pigweed plant response rating (pigweed; [7]): 0 | Redroot pigweed plant response rating (pigweed; [8]): 0 | Morningglory plant response rating (morningglory; [1]): 0 | Morningglory plant response rating (morningglory; [2]): 0 | Morningglory plant response rating (morningglory; [3]): 0 | Plant response rating, Morningglory (morningglory; [4]): 0 | Plant response rating, Morningglory (morningglory; [5]): 0 | Morningglory plant response rating (morningglory; [6]): 0 | Morningglory plant response rating (morningglory; [7]): 0 | Morningglory plant response rating (morningglory; [8]): 0 | Nutsedge plant response rating (purple nutsedge; [1]): 0 | Nutsedge plant response rating (purple nutsedge; [2]): 0 | Nutsedge plant response rating (purple nutsedge; [3]): 0 | Plant response rating, Nutsedge (purple nutsedge; [4]): 0 | Plant response rating, Nutsedge (purple nutsedge; [5]): 0 | Nutsedge plant response rating (purple nutsedge; [6]): 0 | Nutsedge plant response rating (purple nutsedge; [7]): 0 | Nutsedge plant response rating (purple nutsedge; [8]): 0 | Giant foxtail plant response rating (giant foxtail; [1]): 0 | Giant foxtail plant response rating (giant foxtail; [2]): 0 | Giant foxtail plant response rating (giant foxtail; [3]): 0 | Plant response rating, Giant foxtail (giant foxtail; [4]): 0 | Plant response rating, Giant foxtail (giant foxtail; [5]): 4 | Giant foxtail plant response rating (giant foxtail; [6]): 4 | Giant foxtail plant response rating (giant foxtail; [7]): 0 | Giant foxtail plant response rating (giant foxtail; [8]): 1 | Corn plant response rating (corn; [1]): 0 | Corn plant response rating (corn; [2]): 0 | Corn plant response rating (corn; [3]): 0 | Plant response rating, Corn (corn; [4]): 0 | Plant response rating, Corn (corn; [5]): 0 | Corn plant response rating (corn; [6]): 0 | Corn plant response rating (corn; [7]): 0 | Corn plant response rating (corn; [8]): 0 | S. Flatsedge plant response rating (smallflower flatsedge; [9]): 0 | S. Flatsedge plant response rating (smallflower flatsedge; [10]): 0 | S. Flatsedge plant response rating (smallflower flatsedge; [11]): 0 | Plant response rating, S. Flatsedge (smallflower flatsedge; [12]): 0 | Wheat plant response rating (wheat; [1]): 0 | Wheat plant response rating (wheat; [2]): 0 | Wheat plant response rating (wheat; [3]): 0 | Plant response rating, Wheat (wheat; [4]): 0 | Plant response rating, Wheat (wheat; [5]): 0 | Wheat plant response rating (wheat; [6]): 0 | Wheat plant response rating (wheat; [7]): 0 | Wheat plant response rating (wheat; [8]): 0 | Crabgrass plant response rating (crabgrass; [1]): 0 | Crabgrass plant response rating (crabgrass; [2]): 1 | Crabgrass plant response rating (crabgrass; [3]): 0 | Plant response rating, Crabgrass (crabgrass; [4]): 0 | Plant response rating, Crabgrass (crabgrass; [5]): 2 | Crabgrass plant response rating (crabgrass; [6]): 4 | Crabgrass plant response rating (crabgrass; [7]): 0 | Crabgrass plant response rating (crabgrass; [8]): 1 | Wild oats plant response rating (wild oat; [1]): 0 | Wild oats plant response rating (wild oat; [2]): 0 | Wild oats plant response rating (wild oat; [3]): 0 | Plant response rating, Wild oats (wild oat; [4]): 0 | Plant response rating, Wild oats (wild oat; [5]): 0 | Wild oats plant response rating (wild oat; [6]): 0 | Wild oats plant response rating (wild oat; [7]): 0 | Wild oats plant response rating (wild oat; [8]): 0 | Ducksalad plant response rating (duck salad; [9]): 0 | Ducksalad plant response rating (duck salad; [10]): 0 | Ducksalad plant response rating (duck salad; [11]): 0 | Plant response rating, Ducksalad (duck salad; [12]): 0 | Soybean plant response rating (soybean; [1]): 2 | Soybean plant response rating (soybean; [2]): 2 | Soybean plant response rating (soybean; [3]): 0 | Plant response rating, Soybean (soybean; [4]): 0 | Plant response rating, Soybean (soybean; [5]): 0 | Soybean plant response rating (soybean; [6]): 0 | Soybean plant response rating (soybean; [7]): 2 | Soybean plant response rating (soybean; [8]): 3 | Rape plant response rating (rape; [1]): 0 | Rape plant response rating (rape; [2]): 0 | Rape plant response rating (rape; [3]): 0 | Plant response rating, Rape (rape; [4]): 0 | Plant response rating, Rape (rape; [5]): 0 | Rape plant response rating (rape; [6]): 0 | Rape plant response rating (rape; [7]): 0 | Rape plant response rating (rape; [8]): 0 | Velvetleaf plant response rating (velvetleaf; [1]): 0 | Velvetleaf plant response rating (velvetleaf; [2]): 0 | Velvetleaf plant response rating (velvetleaf; [3]): 0 | Plant response rating, Velvetleaf (velvetleaf; [4]): 0 | Plant response rating, Velvetleaf (velvetleaf; [5]): 0 | Velvetleaf plant response rating (velvetleaf; [6]): 0 | Velvetleaf plant response rating (velvetleaf; [7]): 0 | Velvetleaf plant response rating (velvetleaf; [8]): 2 | Sugarbeets plant response rating (sugar beet; [1]): 0 | Sugarbeets plant response rating (sugar beet; [2]): 0 | Sugarbeets plant response rating (sugar beet; [3]): 0 | Plant response rating, Sugarbeets (sugar beet; [4]): 0 | Plant response rating, Sugarbeets (sugar beet; [5]): 0 | Sugarbeets plant response rating (sugar beet; [6]): 0 | Sugarbeets plant response rating (sugar beet; [7]): 0 | Sugarbeets plant response rating (sugar beet; [8]): 0
